Publication PMC6138237, “Machine intelligence decrypts β-lapachone as an allosteric 5-lipoxygenase inhibitor” (Chemical Science, 2018)
Where two headings read alike, the source gives them in different places.

Experiments:
TRPM8 = target: T1, TRPM8 (Homo sapiens, UniProt Q7Z2W7); assay: TRPM8 functional agonist assay, Cerep (intracellular Ca2+); type: cell-based; conditions: TRPM8 (agonist), 150 µM
T1 construct: Cerep, SA (fee-for-service assay) printed G018533 (citation number 33 glued on)

EP1 [1] = target: T2, EP1 (Homo sapiens, UniProt P34995); assay: EP1 functional antagonist assay, Cerep (PGE2 3 nM, intracellular Ca2+)
T2 sequence (P34995 1-402): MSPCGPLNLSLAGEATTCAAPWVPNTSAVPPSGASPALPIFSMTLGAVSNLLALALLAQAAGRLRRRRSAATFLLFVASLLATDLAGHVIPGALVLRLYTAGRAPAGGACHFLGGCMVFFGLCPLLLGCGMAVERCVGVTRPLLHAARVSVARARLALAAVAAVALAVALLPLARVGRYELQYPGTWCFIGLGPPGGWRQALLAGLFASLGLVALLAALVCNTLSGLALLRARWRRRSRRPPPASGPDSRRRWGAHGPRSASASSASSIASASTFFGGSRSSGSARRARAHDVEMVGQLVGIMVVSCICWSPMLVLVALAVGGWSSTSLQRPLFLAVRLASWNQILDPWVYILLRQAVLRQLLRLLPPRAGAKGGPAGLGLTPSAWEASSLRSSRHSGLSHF

15-LO-2 = target: T3, 15-LO-2 (Homo sapiens, UniProt O15296); assay: 15-LO-2 inhibition assay, Cerep (Method A, fluorometry); type: biochemical; conditions: 5 µM
T3 sequence (O15296 1-676): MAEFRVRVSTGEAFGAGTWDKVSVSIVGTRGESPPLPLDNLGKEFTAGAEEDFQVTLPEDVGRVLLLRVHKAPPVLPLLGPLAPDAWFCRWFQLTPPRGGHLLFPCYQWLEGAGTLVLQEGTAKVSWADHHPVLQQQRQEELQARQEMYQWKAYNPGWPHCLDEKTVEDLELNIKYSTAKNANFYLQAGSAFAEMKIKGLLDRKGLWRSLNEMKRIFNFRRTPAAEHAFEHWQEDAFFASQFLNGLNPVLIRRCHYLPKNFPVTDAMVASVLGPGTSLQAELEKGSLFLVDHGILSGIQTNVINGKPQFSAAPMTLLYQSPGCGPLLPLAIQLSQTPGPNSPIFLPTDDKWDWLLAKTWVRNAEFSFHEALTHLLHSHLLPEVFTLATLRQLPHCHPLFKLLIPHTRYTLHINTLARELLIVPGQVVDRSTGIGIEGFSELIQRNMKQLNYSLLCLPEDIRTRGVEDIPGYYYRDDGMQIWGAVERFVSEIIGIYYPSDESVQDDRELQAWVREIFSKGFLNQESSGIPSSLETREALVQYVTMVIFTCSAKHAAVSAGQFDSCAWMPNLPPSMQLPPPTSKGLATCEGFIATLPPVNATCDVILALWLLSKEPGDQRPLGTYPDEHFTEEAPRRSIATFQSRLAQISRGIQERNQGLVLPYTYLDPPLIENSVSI

15-LO = 15-LO inhibition in intact human neutrophils; conditions: read-out: IC50 (15-LO), without DTT
EP3 = target: T4, EP3 (Homo sapiens, UniProt P43115); assay: EP3 functional antagonist assay, Cerep (sulprostone 0.1 nM, impedance)
T4 sequence (P43115 1-390): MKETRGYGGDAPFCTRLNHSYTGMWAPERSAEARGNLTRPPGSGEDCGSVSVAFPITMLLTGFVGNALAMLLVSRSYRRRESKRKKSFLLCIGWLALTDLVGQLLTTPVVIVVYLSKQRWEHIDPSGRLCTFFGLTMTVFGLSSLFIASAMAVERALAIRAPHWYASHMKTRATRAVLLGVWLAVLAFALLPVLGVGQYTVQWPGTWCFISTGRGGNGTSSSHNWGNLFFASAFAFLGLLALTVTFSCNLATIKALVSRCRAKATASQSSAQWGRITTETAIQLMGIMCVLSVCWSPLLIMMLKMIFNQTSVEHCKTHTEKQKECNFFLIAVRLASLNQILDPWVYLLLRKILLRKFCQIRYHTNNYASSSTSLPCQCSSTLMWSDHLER

Abl = Abl (Homo sapiens, UniProt P00519); assay: ExpresS Diversity Kinase Profile, Cerep (LANCE): Abl; type: biochemical
PDE5 = PDE5 (Homo sapiens, UniProt O76074); assay: Phosphodiesterase 5 inhibition assay, Cerep (scintillation counting); type: biochemical; conditions: for percent inhibition at 2 µM: PDE5
EP2 = EP2 (Homo sapiens, UniProt P43116); assay: EP2 functional agonist assay, Cerep (cAMP, HTRF)
EP4 = EP4 (Homo sapiens, UniProt P35408); assay: EP4 functional agonist assay, Cerep (cAMP, HTRF)
PKCβ2 = PKCβ2 (Homo sapiens, UniProt P05771); assay: ExpresS Diversity Kinase Profile, Cerep (LANCE): PKCβ2; type: biochemical
EP1 [2] = target: T2, EP1; assay: EP1 functional agonist assay, Cerep (intracellular Ca2+)
p38α = p38α (Homo sapiens, UniProt Q16539); assay: ExpresS Diversity Kinase Profile, Cerep (LANCE): p38α; type: biochemical; conditions: 150 µM
FGFR1 = FGFR1 (Homo sapiens, UniProt P11362); assay: ExpresS Diversity Kinase Profile, Cerep (LANCE): FGFR1; type: biochemical
[3] = n = 2, read-out: % of control values, Mean
[4] = read-out: % of control values, 1st measurement
[5] = read-out: % of control values, 2nd measurement
[6] = n = 2, read-out: % Inhibition of control values, Mean
[7] = read-out: % Inhibition of control values, 1st measurement
[8] = read-out: % Inhibition of control values, 2nd measurement
[9] = read-out: % of control values, Mean

Sequence of PKCβ2 (P05771 1-673 isoform P05771-2): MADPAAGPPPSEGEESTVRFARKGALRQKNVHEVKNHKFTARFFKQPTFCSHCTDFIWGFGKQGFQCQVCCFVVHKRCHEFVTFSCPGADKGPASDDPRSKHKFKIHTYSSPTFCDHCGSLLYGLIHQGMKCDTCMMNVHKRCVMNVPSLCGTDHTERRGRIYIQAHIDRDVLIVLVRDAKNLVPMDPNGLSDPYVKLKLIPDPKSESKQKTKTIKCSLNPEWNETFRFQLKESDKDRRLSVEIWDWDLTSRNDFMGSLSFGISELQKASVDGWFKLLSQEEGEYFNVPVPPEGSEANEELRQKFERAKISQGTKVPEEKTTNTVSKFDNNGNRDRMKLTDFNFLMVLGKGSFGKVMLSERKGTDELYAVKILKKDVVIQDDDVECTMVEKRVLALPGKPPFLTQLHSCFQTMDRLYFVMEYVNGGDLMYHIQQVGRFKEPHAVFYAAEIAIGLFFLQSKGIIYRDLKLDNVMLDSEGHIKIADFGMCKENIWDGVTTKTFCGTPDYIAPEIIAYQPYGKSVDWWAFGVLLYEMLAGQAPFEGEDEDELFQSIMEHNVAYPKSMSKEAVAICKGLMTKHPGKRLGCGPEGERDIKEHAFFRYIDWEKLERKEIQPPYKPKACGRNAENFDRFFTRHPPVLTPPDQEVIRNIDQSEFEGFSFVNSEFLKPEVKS
Sequence of p38α (Q16539 whole entry): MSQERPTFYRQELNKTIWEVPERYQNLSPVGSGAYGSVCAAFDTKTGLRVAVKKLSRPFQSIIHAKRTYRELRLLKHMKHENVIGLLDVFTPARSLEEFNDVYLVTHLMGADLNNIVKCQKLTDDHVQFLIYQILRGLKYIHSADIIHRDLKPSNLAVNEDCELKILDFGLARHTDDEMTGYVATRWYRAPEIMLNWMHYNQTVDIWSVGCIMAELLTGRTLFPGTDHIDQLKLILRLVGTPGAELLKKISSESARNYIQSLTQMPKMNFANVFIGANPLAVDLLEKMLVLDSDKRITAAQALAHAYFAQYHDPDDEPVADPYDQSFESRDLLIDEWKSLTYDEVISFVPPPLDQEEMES
Sequence of EP2 (P43116 whole entry): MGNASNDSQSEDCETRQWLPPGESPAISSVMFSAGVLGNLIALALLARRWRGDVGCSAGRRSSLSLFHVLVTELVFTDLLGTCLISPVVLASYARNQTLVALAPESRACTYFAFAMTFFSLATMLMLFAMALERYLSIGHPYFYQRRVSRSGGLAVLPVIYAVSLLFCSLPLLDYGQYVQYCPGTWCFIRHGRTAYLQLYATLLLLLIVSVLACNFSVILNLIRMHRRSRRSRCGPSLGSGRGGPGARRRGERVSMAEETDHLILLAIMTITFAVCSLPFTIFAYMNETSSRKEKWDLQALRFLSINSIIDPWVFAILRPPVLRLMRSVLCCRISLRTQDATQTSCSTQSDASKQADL
Sequence of FGFR1 (P11362 22-822): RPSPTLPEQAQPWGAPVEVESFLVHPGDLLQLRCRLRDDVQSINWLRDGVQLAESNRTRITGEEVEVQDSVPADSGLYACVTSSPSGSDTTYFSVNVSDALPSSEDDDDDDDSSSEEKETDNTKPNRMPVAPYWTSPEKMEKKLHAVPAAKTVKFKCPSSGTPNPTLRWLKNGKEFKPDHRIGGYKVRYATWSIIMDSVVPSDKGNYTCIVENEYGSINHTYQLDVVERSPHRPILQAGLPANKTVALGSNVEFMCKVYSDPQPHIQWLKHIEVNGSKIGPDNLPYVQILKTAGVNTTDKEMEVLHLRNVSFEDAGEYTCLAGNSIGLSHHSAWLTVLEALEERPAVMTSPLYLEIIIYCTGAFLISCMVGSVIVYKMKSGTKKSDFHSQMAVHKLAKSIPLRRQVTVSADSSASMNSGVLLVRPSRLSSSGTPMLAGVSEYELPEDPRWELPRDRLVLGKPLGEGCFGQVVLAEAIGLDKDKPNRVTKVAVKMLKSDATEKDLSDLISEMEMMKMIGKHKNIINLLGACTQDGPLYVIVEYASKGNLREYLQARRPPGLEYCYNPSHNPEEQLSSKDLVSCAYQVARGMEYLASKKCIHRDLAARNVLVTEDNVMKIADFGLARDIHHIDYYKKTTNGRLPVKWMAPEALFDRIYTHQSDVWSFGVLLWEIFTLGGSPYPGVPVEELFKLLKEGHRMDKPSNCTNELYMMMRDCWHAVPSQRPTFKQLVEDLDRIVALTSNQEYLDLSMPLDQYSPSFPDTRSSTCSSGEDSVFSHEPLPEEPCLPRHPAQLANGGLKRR
T1 sequence (Q7Z2W7 whole entry): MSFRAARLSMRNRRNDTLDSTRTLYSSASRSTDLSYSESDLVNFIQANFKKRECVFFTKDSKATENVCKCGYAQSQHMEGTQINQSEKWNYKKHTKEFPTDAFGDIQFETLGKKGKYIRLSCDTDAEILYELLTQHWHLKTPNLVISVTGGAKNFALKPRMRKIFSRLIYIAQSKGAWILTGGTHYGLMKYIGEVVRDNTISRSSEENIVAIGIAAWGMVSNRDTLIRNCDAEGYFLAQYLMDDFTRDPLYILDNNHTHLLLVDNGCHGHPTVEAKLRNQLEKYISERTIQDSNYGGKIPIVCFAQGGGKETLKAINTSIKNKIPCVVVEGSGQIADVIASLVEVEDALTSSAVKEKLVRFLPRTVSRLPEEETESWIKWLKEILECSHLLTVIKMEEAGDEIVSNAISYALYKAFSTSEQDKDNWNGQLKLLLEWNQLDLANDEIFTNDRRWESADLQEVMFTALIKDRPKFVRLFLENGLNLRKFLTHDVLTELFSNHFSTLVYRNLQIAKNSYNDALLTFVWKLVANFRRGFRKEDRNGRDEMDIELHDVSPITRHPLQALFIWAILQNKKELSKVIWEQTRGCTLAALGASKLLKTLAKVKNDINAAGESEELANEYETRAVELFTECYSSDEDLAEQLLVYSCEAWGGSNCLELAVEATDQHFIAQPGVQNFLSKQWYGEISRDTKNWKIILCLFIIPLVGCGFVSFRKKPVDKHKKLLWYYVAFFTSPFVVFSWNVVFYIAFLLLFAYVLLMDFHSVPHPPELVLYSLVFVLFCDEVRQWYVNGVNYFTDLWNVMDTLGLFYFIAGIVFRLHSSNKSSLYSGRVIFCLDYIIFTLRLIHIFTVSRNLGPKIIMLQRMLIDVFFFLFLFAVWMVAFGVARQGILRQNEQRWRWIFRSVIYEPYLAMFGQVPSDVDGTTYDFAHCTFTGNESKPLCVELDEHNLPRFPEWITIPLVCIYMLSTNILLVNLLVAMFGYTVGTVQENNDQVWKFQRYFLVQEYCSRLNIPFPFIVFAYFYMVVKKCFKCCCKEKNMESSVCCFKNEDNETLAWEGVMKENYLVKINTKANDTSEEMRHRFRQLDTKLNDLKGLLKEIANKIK
Sequence of Abl (P00519 whole entry): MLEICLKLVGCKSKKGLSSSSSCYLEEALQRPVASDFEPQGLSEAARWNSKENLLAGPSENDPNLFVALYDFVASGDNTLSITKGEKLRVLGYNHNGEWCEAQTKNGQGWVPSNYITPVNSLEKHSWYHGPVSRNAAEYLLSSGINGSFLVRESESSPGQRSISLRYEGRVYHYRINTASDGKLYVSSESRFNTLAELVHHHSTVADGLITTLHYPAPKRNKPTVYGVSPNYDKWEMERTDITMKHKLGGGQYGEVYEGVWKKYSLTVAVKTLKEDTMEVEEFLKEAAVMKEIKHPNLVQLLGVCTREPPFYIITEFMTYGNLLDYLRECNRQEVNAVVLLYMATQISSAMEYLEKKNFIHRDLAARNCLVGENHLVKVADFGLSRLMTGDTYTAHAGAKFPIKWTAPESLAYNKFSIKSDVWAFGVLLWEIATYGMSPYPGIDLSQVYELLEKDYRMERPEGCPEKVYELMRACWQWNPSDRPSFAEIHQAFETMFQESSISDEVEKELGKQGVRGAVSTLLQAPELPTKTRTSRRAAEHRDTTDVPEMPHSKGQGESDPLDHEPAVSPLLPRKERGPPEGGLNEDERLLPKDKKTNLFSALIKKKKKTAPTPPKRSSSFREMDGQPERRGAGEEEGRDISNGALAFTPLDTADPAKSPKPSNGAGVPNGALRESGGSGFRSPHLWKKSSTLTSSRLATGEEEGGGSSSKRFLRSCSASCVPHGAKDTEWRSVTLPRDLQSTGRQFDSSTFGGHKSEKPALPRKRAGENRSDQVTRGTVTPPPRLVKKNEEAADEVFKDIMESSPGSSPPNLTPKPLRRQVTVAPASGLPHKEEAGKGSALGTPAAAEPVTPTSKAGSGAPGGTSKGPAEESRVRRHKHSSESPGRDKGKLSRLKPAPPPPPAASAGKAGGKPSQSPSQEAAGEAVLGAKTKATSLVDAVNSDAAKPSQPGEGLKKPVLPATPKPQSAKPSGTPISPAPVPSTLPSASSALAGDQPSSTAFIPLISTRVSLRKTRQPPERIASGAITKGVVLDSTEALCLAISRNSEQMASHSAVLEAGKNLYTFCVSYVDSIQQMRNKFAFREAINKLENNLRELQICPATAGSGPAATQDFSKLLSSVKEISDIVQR
Sequence of EP4 (P35408 whole entry): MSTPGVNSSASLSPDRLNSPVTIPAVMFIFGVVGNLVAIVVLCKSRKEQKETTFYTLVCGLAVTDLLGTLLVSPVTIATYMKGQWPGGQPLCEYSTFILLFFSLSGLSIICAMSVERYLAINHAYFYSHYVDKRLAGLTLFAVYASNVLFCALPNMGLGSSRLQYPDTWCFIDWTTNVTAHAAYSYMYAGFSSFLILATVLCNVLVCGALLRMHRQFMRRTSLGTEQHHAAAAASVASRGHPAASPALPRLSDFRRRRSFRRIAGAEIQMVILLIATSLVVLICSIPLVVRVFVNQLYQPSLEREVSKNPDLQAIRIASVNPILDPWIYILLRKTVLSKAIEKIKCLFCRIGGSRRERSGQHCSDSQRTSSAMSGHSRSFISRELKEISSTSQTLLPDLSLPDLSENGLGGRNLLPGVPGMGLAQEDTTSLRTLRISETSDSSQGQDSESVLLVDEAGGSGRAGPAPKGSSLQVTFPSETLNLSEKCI

`CC1(C)CCC2=C(O1)c1ccccc1C(=O)C2=O` [β-Lapachone] was tested, and the remaining activity at 150 µM (TRPM8; [3]) was -20.4%, the remaining activity at 150 µM (TRPM8; [4]) was -20.4% and the remaining activity at 150 µM (TRPM8; [5]) was -20.4%. For the same molecule, the IC50 (EP1 [1]) was greater than 100 µM, the inhibition at 5 µM (15-LO-2; n = 2, read-out: % inhibition of control values, Mean) was -12.9% and the inhibition at 5 µM (15-LO-2; read-out: % inhibition of control values, 1st measure) was -12%. It also gave an inhibition at 5 µM (15-LO-2; read-out: % inhibition of control values, 2nd measure) of -13.8%, an IC50 (15-LO) greater than 30 µM and a Kb (EP3) of 22 µM. The “ligand efficiency (LE)” value (EP3; EP3) was 0.36, the IC50 (EP3; Experimental –log(IC50 or KD), EP3) was 20 µM and the IC50 (EP3; IC50, EP3 concentration–inhibition curve, n = 2) was 63 µM. The inhibition at 150 µM (Abl; [6]) was 42.4%, the inhibition at 150 µM (Abl; [7]) was 42.9% and the inhibition at 150 µM (Abl; [8]) was 41.8%. For the same molecule, the IC50 (PDE5) was greater than 10 µM, the percent inhibition at 2 µM (PDE5; [3]) was -8.3% and the percent inhibition at 2 µM (PDE5; [4]) was -6.9%. For the same molecule, the percent inhibition at 2 µM (PDE5; [5]) was -9.7%, the “activity against PDE5” value (PDE5; screening against phosphodiesterase 5) was “inactivity” and the remaining activity at 150 µM (EP2; [4]) was 12.3%. It also gave a remaining activity at 150 µM (EP2; [5]) of 14.8%, a remaining activity at 150 µM (EP2; [9]) of 13.5% and an IC50 (EP4) of roughly 100 µM. It also gave a remaining activity at 150 µM (EP4; [4]) of 54.6%, a remaining activity at 150 µM (EP4; [5]) of 51.7% and a remaining activity at 150 µM (EP4; [9]) of 53.1%. For the same molecule, the inhibition at 150 µM (PKCβ2; [6]) was 34%, the inhibition at 150 µM (PKCβ2; [7]) was 36.5% and the inhibition at 150 µM (PKCβ2; [8]) was 31.6%. It also gave a remaining activity at 150 µM (EP1 [2]; [4]) of -11.9%, a remaining activity at 150 µM (EP1 [2]; [5]) of -11.9% and a remaining activity at 150 µM (EP1 [2]; [9]) of -11.9%. It also gave an inhibition at 150 µM (p38α; [6]) of 25.1%, an inhibition at 150 µM (p38α; [7]) of 27.1% and an inhibition at 150 µM (p38α; [8]) of 23.1%. The inhibition at 150 µM (FGFR1; Flag: Interference, read-out: % Inhibition of control values, 1st measurement) was 51.5%, the inhibition at 150 µM (FGFR1; Flag: Interference, read-out: % Inhibition of control values, 2nd measurement) was 60.5% and the inhibition at 150 µM (FGFR1; n = 2, Flag: Interference, read-out: % Inhibition of control values, Mean) was 56%.
